From the supplement of paper PMC10307832

Key:
Experiment in all cases: relative viability (nuclei count vs DMSO), 5 days (fraction); higher = more cells survive
[1] = system: 201T
Procedure, shortened: (§1)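 For relative viability, nuclei counts in treated wells were divided by those in vehicle wells. Lung cancer cell lines had been pin-tool dosed in 1536-well plates the day after seeding and cultured for 5 days, then fixed and stained in one step (final 0.05% Triton X-100, 1% formaldehyde, 1 ug/ml Hoechst) and imaged at 4×. Doses were one drug alone or a fixed anchor-drug dose plus five library-drug doses (not always all listed) in √10 steps, and values are duplicate-plate medians.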

[2] = system: BEN
Procedure, shortened: as §1

[3] = system: CAL-12T
Procedure, shortened: as §1

[4] = system: HCC-44
Procedure, shortened: as §1

[5] = system: HCC-827
Procedure, shortened: as §1

[6] = system: HOP-62
Procedure, shortened: as §1

[7] = system: LCLC-103H
Procedure, shortened: as §1

[8] = system: LCLC-97TM1
Procedure, shortened: as §1

[9] = system: LXF-289
Procedure, shortened: as §1

[10] = system: NCI-H1355
Procedure, shortened: as §1

[11] = system: NCI-H1395
Procedure, shortened: as §1

[12] = system: NCI-H1437
Procedure, shortened: as §1

[13] = system: NCI-H1793
Procedure, shortened: as §1

[14] = system: NCI-H2087
Procedure, shortened: as §1

[15] = system: NCI-H2405
Procedure, shortened: as §1

[16] = system: NCI-H3122
Procedure, shortened: as §1

[17] = system: NCI-H322M
Procedure, shortened: as §1

[18] = system: NCI-H647
Procedure, shortened: as §1

[19] = system: NCI-H727
Procedure, shortened: as §1

[20] = system: RERF-LC-KJ
Procedure, shortened: as §1

Clc1ccc(Nc2nnc(Cc3ccncc3)c3ccccc23)cc1 [Vatalanib] + NC(=O)Nc1cc(-c2cccc(F)c2)sc1C(=O)N[C@H]1CCCNC1 [AZD7762] (partner 0.2 µM)
relative viability ([1]; first compound 0.04 µM): 0.611
relative viability ([1]; first compound 0.1265 µM): 0.57
relative viability ([1]; first compound 0.4 µM): 0.621
relative viability ([1]; first compound 1.265 µM): 0.648
relative viability ([1]; first compound 4 µM): 0.57
relative viability ([2]; first compound 0.04 µM): 0.676
relative viability ([2]; first compound 0.1265 µM): 0.732
relative viability ([2]; first compound 0.4 µM): 0.596
relative viability ([2]; first compound 1.265 µM): 0.602
relative viability ([2]; first compound 4 µM): 0.685
relative viability ([3]; first compound 0.04 µM): 0.683
relative viability ([3]; first compound 0.1265 µM): 0.599
relative viability ([3]; first compound 0.4 µM): 0.588
relative viability ([3]; first compound 1.265 µM): 0.469
relative viability ([3]; first compound 4 µM): 0.574
relative viability ([4]; first compound 0.04 µM): 1.01
relative viability ([4]; first compound 0.1265 µM): 1.03
relative viability ([4]; first compound 0.4 µM): 0.959
relative viability ([4]; first compound 1.265 µM): 0.983
relative viability ([4]; first compound 4 µM): 1
relative viability ([5]; first compound 0.04 µM): 0.187
relative viability ([5]; first compound 0.1265 µM): 0.282
relative viability ([5]; first compound 1.265 µM): 0.183
relative viability ([5]; first compound 4 µM): 0.194
relative viability ([6]; first compound 0.04 µM): 0.792
relative viability ([6]; first compound 0.1265 µM): 0.618
relative viability ([6]; first compound 0.4 µM): 0.603
relative viability ([6]; first compound 1.265 µM): 0.695
relative viability ([6]; first compound 4 µM): 0.681
relative viability ([7]; first compound 0.04 µM): 0.797
relative viability ([7]; first compound 0.1265 µM): 0.714
relative viability ([7]; first compound 0.4 µM): 0.803
relative viability ([7]; first compound 1.265 µM): 0.806
relative viability ([7]; first compound 4 µM): 0.725
relative viability ([8]; first compound 0.04 µM): 0.24
relative viability ([8]; first compound 0.1265 µM): 0.263
relative viability ([8]; first compound 0.4 µM): 0.222
relative viability ([8]; first compound 1.265 µM): 0.172
relative viability ([8]; first compound 4 µM): 0.23
relative viability ([9]; first compound 0.04 µM): 1.14
relative viability ([9]; first compound 0.1265 µM): 0.97
relative viability ([9]; first compound 0.4 µM): 1.21
relative viability ([9]; first compound 1.265 µM): 1.01
relative viability ([9]; first compound 4 µM): 1.03
relative viability ([10]; first compound 0.04 µM): 0.792
relative viability ([10]; first compound 0.1265 µM): 0.745
relative viability ([10]; first compound 0.4 µM): 0.767
relative viability ([10]; first compound 1.265 µM): 0.578
relative viability ([10]; first compound 4 µM): 0.597
relative viability ([11]; first compound 0.04 µM): 0.381
relative viability ([11]; first compound 0.1265 µM): 0.381
relative viability ([11]; first compound 0.4 µM): 0.389
relative viability ([11]; first compound 4 µM): 0.394
relative viability ([12]; first compound 0.04 µM): 1.07
relative viability ([12]; first compound 0.1265 µM): 1.08
relative viability ([12]; first compound 0.4 µM): 1.18
relative viability ([12]; first compound 1.265 µM): 1.06
relative viability ([12]; first compound 4 µM): 0.997
relative viability ([13]; first compound 0.04 µM): 0.518
relative viability ([13]; first compound 0.1265 µM): 0.311
relative viability ([13]; first compound 0.4 µM): 0.714
relative viability ([13]; first compound 1.265 µM): 0.243
relative viability ([13]; first compound 4 µM): 0.286
relative viability ([14]; first compound 0.04 µM): 1.28
relative viability ([14]; first compound 0.1265 µM): 1.25
relative viability ([14]; first compound 0.4 µM): 1.4
relative viability ([14]; first compound 1.265 µM): 1.19
relative viability ([14]; first compound 4 µM): 1.15
relative viability ([15]; first compound 0.04 µM): 0.799
relative viability ([15]; first compound 0.1265 µM): 0.694
relative viability ([15]; first compound 0.4 µM): 0.725
relative viability ([15]; first compound 4 µM): 0.696
relative viability ([16]; first compound 0.04 µM): 1.07
relative viability ([16]; first compound 0.1265 µM): 0.969
relative viability ([16]; first compound 0.4 µM): 1.02
relative viability ([16]; first compound 1.265 µM): 0.966
relative viability ([16]; first compound 4 µM): 0.995
relative viability ([17]; first compound 0.04 µM): 0.543
relative viability ([17]; first compound 0.1265 µM): 0.527
relative viability ([17]; first compound 0.4 µM): 0.503
relative viability ([17]; first compound 4 µM): 0.47
relative viability ([18]; first compound 0.04 µM): 0.489
relative viability ([18]; first compound 0.1265 µM): 0.45
relative viability ([18]; first compound 0.4 µM): 0.395
relative viability ([18]; first compound 1.265 µM): 0.391
relative viability ([18]; first compound 4 µM): 0.46
relative viability ([19]; first compound 0.1265 µM): 0.49
relative viability ([19]; first compound 0.4 µM): 0.774
relative viability ([19]; first compound 1.265 µM): 0.654
relative viability ([19]; first compound 4 µM): 0.538
relative viability ([20]; first compound 0.04 µM): 1.16
relative viability ([20]; first compound 0.1265 µM): 0.919
relative viability ([20]; first compound 0.4 µM): 1.05
relative viability ([20]; first compound 1.265 µM): 0.711
relative viability ([20]; first compound 4 µM): 0.749
